Data on 23 compounds can be found in ChEMBL document CHEMBL2203210, “SAR and in vivo evaluation of 4-aryl-2-aminoalkylpyrimidines as potent and selective Janus kinase 2 (JAK2) inhibitors” (Bioorg Med Chem Lett, 2012).

Molecules are shown by their SMILES. pIC50: −log10 of the molar value. ≈ marks a conversion by molar mass, not a printed value. Bounds are passed on as bounds.

The target of series [1] is T1, Tyrosine-protein kinase JAK2 (Homo sapiens, UniProt O60674).
The target in series [2] is T2, Tyrosine-protein kinase JAK3 (Homo sapiens, UniProt P52333).
T2 sequence (P52333 whole entry): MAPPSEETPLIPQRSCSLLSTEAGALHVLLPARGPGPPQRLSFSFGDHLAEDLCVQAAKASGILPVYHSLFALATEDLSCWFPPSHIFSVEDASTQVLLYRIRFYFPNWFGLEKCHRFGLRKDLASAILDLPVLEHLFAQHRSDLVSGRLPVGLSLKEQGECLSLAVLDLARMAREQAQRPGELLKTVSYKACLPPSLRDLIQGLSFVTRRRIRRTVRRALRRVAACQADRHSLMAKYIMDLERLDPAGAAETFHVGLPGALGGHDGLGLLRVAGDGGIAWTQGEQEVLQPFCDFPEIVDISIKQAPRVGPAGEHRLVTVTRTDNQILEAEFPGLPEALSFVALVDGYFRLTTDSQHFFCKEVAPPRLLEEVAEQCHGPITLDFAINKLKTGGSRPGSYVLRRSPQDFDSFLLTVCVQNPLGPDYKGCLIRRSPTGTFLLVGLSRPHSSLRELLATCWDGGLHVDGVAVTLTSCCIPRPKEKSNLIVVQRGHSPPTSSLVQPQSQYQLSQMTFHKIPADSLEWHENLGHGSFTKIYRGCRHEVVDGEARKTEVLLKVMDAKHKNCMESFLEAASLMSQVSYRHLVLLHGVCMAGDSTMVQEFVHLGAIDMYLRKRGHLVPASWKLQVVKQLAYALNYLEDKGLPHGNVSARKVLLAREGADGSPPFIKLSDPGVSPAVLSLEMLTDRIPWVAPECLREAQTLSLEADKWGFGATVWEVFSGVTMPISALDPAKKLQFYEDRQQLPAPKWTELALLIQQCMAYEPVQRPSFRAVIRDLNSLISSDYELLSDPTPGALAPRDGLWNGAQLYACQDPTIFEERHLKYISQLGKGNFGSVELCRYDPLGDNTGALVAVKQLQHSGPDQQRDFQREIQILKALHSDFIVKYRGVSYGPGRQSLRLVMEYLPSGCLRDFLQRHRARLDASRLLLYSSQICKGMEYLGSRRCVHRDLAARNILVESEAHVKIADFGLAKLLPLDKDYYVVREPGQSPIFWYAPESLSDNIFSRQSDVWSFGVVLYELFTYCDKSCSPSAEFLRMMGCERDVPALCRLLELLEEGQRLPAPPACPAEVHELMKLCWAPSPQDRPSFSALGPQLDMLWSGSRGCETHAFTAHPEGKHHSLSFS

In series [3] the target is T1, Tyrosine-protein kinase JAK2. This is another data set of the same source.
Description: Inhibition of JAK2 in HEL 92.1.7 cells assessed as inhibition of STAT1 phosphorylation
Series [4] has the same target. The source holds these as a separate data set.
Description: Inhibition of JAK2 in HEL 92.1.7 cells assessed as inhibition of STAT3 phosphorylation
Series [5] can be described thus: Selectivity ratio of IC50 for JAK3 to IC50 for JAK2.
Series [6] in a line: Kinetic solubility of the compound. Type of series: physicochemical. The conditions noted are these: read-out: Kinetic_solubility.

T1 sequence (O60674 whole entry): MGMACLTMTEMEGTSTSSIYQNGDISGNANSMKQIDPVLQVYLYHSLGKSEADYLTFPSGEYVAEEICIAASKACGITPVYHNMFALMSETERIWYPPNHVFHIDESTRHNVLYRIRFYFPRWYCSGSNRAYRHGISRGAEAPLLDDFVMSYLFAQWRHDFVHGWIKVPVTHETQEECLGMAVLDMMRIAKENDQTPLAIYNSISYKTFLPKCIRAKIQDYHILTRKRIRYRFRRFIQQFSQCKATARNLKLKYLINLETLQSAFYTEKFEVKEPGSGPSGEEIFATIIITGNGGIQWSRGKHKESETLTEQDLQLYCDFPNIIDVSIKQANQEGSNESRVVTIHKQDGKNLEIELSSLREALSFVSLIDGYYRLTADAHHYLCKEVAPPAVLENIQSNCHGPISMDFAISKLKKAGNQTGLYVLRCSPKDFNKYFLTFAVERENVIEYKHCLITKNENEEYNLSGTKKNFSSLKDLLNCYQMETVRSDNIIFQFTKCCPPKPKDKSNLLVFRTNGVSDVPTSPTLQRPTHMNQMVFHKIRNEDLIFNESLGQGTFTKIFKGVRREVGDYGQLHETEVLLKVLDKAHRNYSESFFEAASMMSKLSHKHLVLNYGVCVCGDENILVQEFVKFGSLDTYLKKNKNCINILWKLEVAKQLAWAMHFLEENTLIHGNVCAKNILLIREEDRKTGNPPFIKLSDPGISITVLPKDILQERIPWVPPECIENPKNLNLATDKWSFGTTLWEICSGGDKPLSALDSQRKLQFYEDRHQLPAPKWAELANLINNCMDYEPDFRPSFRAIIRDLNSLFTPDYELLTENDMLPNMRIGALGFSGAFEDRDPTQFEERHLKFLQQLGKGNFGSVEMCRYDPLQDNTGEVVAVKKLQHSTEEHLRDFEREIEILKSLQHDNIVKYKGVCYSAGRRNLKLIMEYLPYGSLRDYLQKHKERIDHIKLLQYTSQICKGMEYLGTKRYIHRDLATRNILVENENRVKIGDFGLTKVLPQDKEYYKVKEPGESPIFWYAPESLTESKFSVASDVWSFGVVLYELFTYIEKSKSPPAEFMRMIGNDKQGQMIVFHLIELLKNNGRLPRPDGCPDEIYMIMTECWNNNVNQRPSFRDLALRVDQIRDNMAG

As to `CC(=O)Nc1ccc(-c2cc(Nc3ccc(N4CCOCC4)cc3)ncn2)cc1`, the pIC50 – broadly, −log10 of the IC50, conventionally taken in molar units – in series [1] was less than 6.01; in series [2], less than 6.01; in series [3], less than 4.52.

With `CC(=O)Nc1ccc(-c2ccnc(Nc3cccc(NC(=O)c4ccccc4)c3)n2)cc1`, the pIC50 in series [2] was less than 6.01.

On to `CC(=O)Nc1ccc(-c2cc(C)nc(Nc3ccc(N4CCOCC4)cc3)n2)cc1`, for which the pIC50 in series [1] was less than 6.01; in series [2] it was less than 6.01; in series [3], less than 4.52.

As for `CC(=O)Nc1ccc(-c2ccnc(Nc3cccc(NC(=O)c4c(Cl)cccc4Cl)n3)n2)cc1`, the values for the pIC50 in series [1], in series [2] and in series [3] were 6.89, less than 6.01 and less than 4.52, respectively.

Turning to `CC(=O)Nc1ccc(-c2ccnc(Nc3cccc(NC(=O)c4ccccc4Cl)c3)n2)cc1`, the pIC50 was 8.16 in series [1], less than 6.01 in series [2] and less than 4.52 in series [3].

On to `CC(=O)Nc1ccc(-c2ccnc(Nc3cccc(N4CCOCC4)c3)n2)cc1`, for which the pIC50 in series [1] was 8.38; in series [4], 6.23; in series [2], less than 6.01; in series [3] it was 6.21.

For `CC(=O)Nc1ccc(-c2nc(Nc3ccc(N4CCOCC4)cc3)ncc2F)cc1`, the pIC50 in series [1] was 8.36; in series [2], less than 6.01; in series [3] it was 5.19.

With `O=C(Nc1ccc(-c2ccnc(Nc3ccc(N4CCOCC4)cc3)n2)cc1)[C@H]1CCNC1`, the results for the pIC50 in series [1], in series [2] and in series [3] were 8.24, 6.43 and less than 4.52, respectively.

Regarding `C[C@@H](N)C(=O)Nc1ccc(-c2ccnc(Nc3ccc(N4CCOCC4)cc3)n2)cc1`, the pIC50 is 8.77 in series [1], 6.34 in series [4], 6.51 in series [2] and 6.48 in series [3].

For `CN1CCC[C@@H]1C(=O)Nc1ccc(-c2ccnc(Nc3ccc(N4CCOCC4)cc3)n2)cc1`, the pIC50 in series [1] is 8.28; in series [4] it was 5.98; in series [2] it was 6.32; in series [3], 6.13.

Regarding `CCN1CCC[C@@H]1C(=O)Nc1ccc(-c2ccnc(Nc3ccc(N4CCOCC4)cc3)n2)cc1`, the figures for the pIC50 in series [1], in series [4] and in series [3] were 8.04, 5.66 and 5.84, respectively.

Consider `O=C1CC[C@H](C(=O)Nc2ccc(-c3ccnc(Nc4ccc(N5CCOCC5)cc4)n3)cc2)N1`, for which the pIC50 in series [1] was 9.05; in series [2] it was 7.21; in series [3], less than 4.52.

On to `CC(=O)Nc1ccc(-c2ccnc(Nc3cccc(N4CCCCC4)c3)n2)cc1`, for which the pIC50 was 8.19 in series [1], 5.88 in series [4], less than 6.01 in series [2] and 6.02 in series [3].

In the case of `CC(=O)Nc1ccc(-c2ccnc(NCC3CN(C(=O)c4c(Cl)cccc4Cl)C3)n2)cc1`, the pIC50 in series [1] is 5.30; in series [2], 5.30; in series [3] it was less than 4.52.

With `N[C@H](CO)C(=O)Nc1ccc(-c2ccnc(Nc3ccc(N4CCOCC4)cc3)n2)cc1`, the pIC50 was 8.57 in series [1], 5.86 in series [4], 6.80 in series [2] and 6.21 in series [3].

With `C[C@H](N)C(=O)Nc1ccc(-c2ccnc(Nc3ccc(N4CCOCC4)cc3)n2)cc1`, the pIC50 was 8.06 in series [1], 5.82 in series [4], 6.53 in series [2] and 5.98 in series [3].

With `CC(=O)Nc1ccc(-c2ccnc(NCCCNC(=O)c3c(Cl)cccc3Cl)n2)cc1`, the pIC50 in series [1] was 6.98; in series [2] it was less than 5.30; in series [3], 5.09. Also, the Ratio IC50 in series [5] is greater than 50. In addition, the solubility kinetic in series [6] came out at 6.5 µM (≈ 2.98 µg/mL).

For the compound `CC(=O)Nc1ccc(-c2ccnc(NC3CCCC(NC(=O)c4c(Cl)cccc4Cl)C3)n2)cc1` (configuration not stated), the pIC50 is less than 6.01 in series [1], less than 6.01 in series [2] and less than 4.52 in series [3].

Take `CC(=O)Nc1ccc(-c2ccnc(Nc3ccccc3)n2)cc1`: the pIC50 in series [1] is 7.89; in series [4] it was 5.71; in series [2], 5.94; in series [3], 6.00. Besides, in series [6], the solubility kinetic was 234 µM (≈ 71.2 µg/mL).

For `CC(=O)Nc1ccc(-c2nc(Nc3ccc(N4CCOCC4)cc3)ncc2C(F)(F)F)cc1`, the pIC50 in series [1] was 7.40; in series [2], less than 6.01; in series [3] it was 5.57.

For the compound `CC(=O)Nc1ccc(-c2ccnc(Nc3cccc(NC(=O)c4c(Cl)cccc4Cl)c3)n2)cc1`, the pIC50 is 7.90 in series [1], 6.30 in series [4], less than 6.01 in series [2] and 6.12 in series [3].

Consider `CC(=O)Nc1ccc(-c2ccnc(Nc3ccc(N4CCOCC4)cc3)n2)cc1`, for which the results for the pIC50 in series [4], in series [2] and in series [3] were 6.10, less than 6.01 and 6.01, respectively. The Ratio IC50 in series [5] was greater than 250.

Compound `CC(=O)Nc1ccc(-c2nc(Nc3ccc(N4CCOCC4)cc3)ncc2C)cc1` had a pIC50 in series [2] of 6.98.
